Test results taken from patent publication US6689767B2, “Triterpenes having antibacterial activity” (Regents of the University of Minnesota, priority 2000, dated 2004).
Where two headings read alike, the source gives them in different places.

How the values were obtained:
Format in all cases: cell-based
Bacillus subtilis = assay: Kirby-Bauer disk diffusion growth inhibition, Bacillus subtilis; conditions: for zone of inhibition at 0.125 µg/mL: read-out: Zone of inhibition Bacillus subtilis; for zone of inhibition at 1000 µg/mL: 1 mg/ml in DMSO
Method: (§1) The compounds disclosed herein were tested for growth inhibition against four strains of bacteria: Escherichia coli, Staphylococcus aureus, methicillin-resistant Staphylococcus aureus, and Bacillus subtilis. […] They represent […]. E. coli is a gram-negative, non-spore forming, rod-shaped, opportunistic pathogen that resides in the human digestive tract. S. aureus is a gram positive coccus, is usually found morphologically as a […], and is an opportunistic human pathogen, often residing on or in the skin. B. subtilis is a gram positive spore-forming rod. Its native environment is the soil. The chemicals were tested for growth-inhibition of the bacteria by the Kirby-Bauer method. See, e.g., Microbiology, third edition; Lansing M. Prescott, John P. Harley, and Donald A. Klein; Wm. C. Brown Publishers.
(§2) Mueller-Hinton agar (Difco Lab, Michigan) was prepared according to the manufacturer's directions, and 20 ml was dispensed in each sterile petri dish. Sterile nutrient broth (Difco Lab, Michigan) was also prepared according to the manufacturer's directions.
(§3) Bacteria were grown in liquid nutrient broth for 18 hours at 37° C. until they were turbid.
(§4) An aliquot of 0.5 ml of cultured bacteria was aseptically transferred to the surface of a Mueller-Hinton agar plat, and spread using a cotton-tipped swab. Plates were then allowed to dry for 5 minutes. Then a 10 mm diameter filter paper disk impregnated with the test chemical was placed with sterile forceps on the plate. The disks were impregnated with 100 μl of a solution of the test compound in DMSO or in water, at the indicated concentrations in Table 1.
(§5) The zones of inhibition were measured after 18 hours growth at 37° C. Tests were done in triplicate.
(§6) Additional compounds were tested for activity against E. coli, laboratory strain S. aureus (not methicillin resistant), and B. subtilis. The compounds were tested by the disk diffusion method, as in Example 1, with application of a 10 mg/mil solution of the test compound in DMSO.

Staphylococcus aureus = assay: Kirby-Bauer disk diffusion growth inhibition, Staphylococcus aureus; conditions: for zone of inhibition at 0.125 µg/mL: read-out: Zone of inhibition Staphylococcus aureus; for zone of inhibition at 1000 µg/mL: 1 mg/ml in DMSO
Method: as §1, §2, §3, §4, §5, §6
Derivatives of lupeol were tested for inhibition of bacterial growth using the Kirby-Bauer disk diffusion method and by growth in liquid culture. For the disk diffusion method, compounds were dissolved in DMSO and 100 μl was added to the 10 mm filter paper disk. The amount of compound applied to the disk varied. The amount applied for each compound was as follows: lupeol (50 μg), lupeol-3-maleate (15 μg), lupeol-3-thiodiglycolate (15 μg), lupeol-3-dimethyl succinate (60 μg), lupeol-3-phosphate (30 μg), lupenone (50 μg), lupenon-3-oxime (50 μg), lupeol-3-amine (50 μg), lupenon-1,2-ene-2-ol (50 μg). In liquid culture, the compounds were dissolved in DMSO at 1 mg/ml and then 100 μl was added to 7 ml of sterile broth, along with a 1/200 dilution of freshly grown bacterial liquid culture.

Escherichia coli = assay: Kirby-Bauer disk diffusion growth inhibition, Escherichia coli; conditions: for zone of inhibition at 0.125 µg/mL: read-out: Zone of inhibition Escherichia coli; for zone of inhibition at 1000 µg/mL: 1 mg/ml in DMSO
Method: as §1, §2, §3, §4, §5, §6

[1] = Bacillus subtilis, 125 ng/ml in water, 100 μl on 10 mm disk, 18 hours 37° C.
[2] = Staphylococcus aureus, 125 ng/ml in water, 100 μl on 10 mm disk, 18 hours 37° C.
[3] = Escherichia coli, 125 ng/ml in water, 100 μl on 10 mm disk, 18 hours 37° C.
[4] = 125 ng/ml in water, 100 μl on 10 mm disk, 18 hours 37° C.
[5] = Bacillus subtilis, 100 μl on 10 mm disk, 18 hours 37° C.
[6] = Staphylococcus aureus, 100 μl on 10 mm disk, 18 hours 37° C.
[7] = Escherichia coli, 100 μl on 10 mm disk, 18 hours 37° C.
[8] = 5 mg/ml in DMSO, 100 μl on 10 mm disk, 18 hours 37° C.

C=C(C)C1CCC2(COC(=O)CCCC(=O)O)CCC3(C)C(CCC4C5(C)CCC(O)C(C)(C)C5CCC43C)C12 (stereo not drawn) [Betulin 28-glutarate, Betulin-28-glutarate] was tested, and the zone of inhibition at 0.125 µg/mL (Bacillus subtilis; [1]) was 0 mm, the zone of inhibition at 0.125 µg/mL (Staphylococcus aureus; [2]) was 0 mm and the zone of inhibition at 0.125 µg/mL (Escherichia coli; [3]) was 0 mm.
“Allobetulin-3-phthalate [Allobetulin 3-phthalate]” was tested, and the “Zone of inhibition Bacillus subtilis” value (Bacillus subtilis; [4]) was 0 mm, the “Zone of inhibition Staphylococcus aureus” value (Staphylococcus aureus; [4]) was 0 mm and the “Zone of inhibition Escherichia coli” value (Escherichia coli; [4]) was 0 mm.
CC1(C)CCC23CCC4(C)C(CCC5C6(C)CCC(OC(=O)CCCC(=O)O)C(C)(C)C6CCC54C)C2C1OC3 (stereo not drawn) [Allobetulin 3-glutarate, Allobetulin-3-glutarate] gave a zone of inhibition at 0.125 µg/mL (Bacillus subtilis; [1]) of 0 mm, a zone of inhibition at 1000 µg/mL (Bacillus subtilis; [5]) of 0 mm and a zone of inhibition at 0.125 µg/mL (Staphylococcus aureus; [2]) of 0 mm. For the same compound, the zone of inhibition at 1000 µg/mL (Staphylococcus aureus; [6]) was 0 mm, the zone of inhibition at 0.125 µg/mL (Escherichia coli; [3]) was 0 mm and the zone of inhibition at 1000 µg/mL (Escherichia coli; [7]) was 0 mm.
For Allobetulin 2-alanine ester, the “Zone of inhibition Bacillus subtilis” value (Bacillus subtilis; [4]) was 0 mm, the “Zone of inhibition Staphylococcus aureus” value (Staphylococcus aureus; [4]) was 0 mm and the “Zone of inhibition Escherichia coli” value (Escherichia coli; [4]) was 0 mm.
For Betulin diglycolate, the “Zone of inhibition Bacillus subtilis” value (Bacillus subtilis; [4]) was 0 mm, the “Zone of inhibition Staphylococcus aureus” value (Staphylococcus aureus; [4]) was 0 mm and the “Zone of inhibition Escherichia coli” value (Escherichia coli; [4]) was 10.0 mm.
CC1(C)CCC23CC[C@@]4(C)C(CCC5[C@@]6(C)CCC(OP(=O)(O)O)C(C)(C)C6CC[C@]54C)C2C1OC3 (stereo partly drawn) [Allobetulin 3-phosphate, allobetulin-3-phosphate] was tested, and the zone of inhibition at 0.125 µg/mL (Bacillus subtilis; [1]) was 0 mm, the zone of inhibition at 0.125 µg/mL (Staphylococcus aureus; [2]) was 0 mm and the zone of inhibition at 0.125 µg/mL (Escherichia coli; [3]) was 0 mm.
Compound CN(C)[C@@H]1C(O)=C(C(N)=O)C(=O)[C@@]2(O)C(O)=C3C(=O)c4c(O)cccc4[C@@](C)(O)[C@H]3C[C@@H]12 [Tetracycline, reference compound] has a zone of inhibition at 30 µg/disc (Bacillus subtilis; Bacillus subtilis, control antibiotic, 30 mcg) of 31 mm, a zone of inhibition at 30 µg/disc (Staphylococcus aureus; Staphylococcus aureus, control antibiotic, 30 mcg) of 26 mm and a zone of inhibition at 30 µg/disc (Escherichia coli; Escherichia coli, control antibiotic, 30 mcg) of 19 mm.
CC1(C)CCC23CC[C@@]4(C)C(CCC5[C@@]6(C)C=C(OC(=O)CCC(=O)O)C(=O)C(C)(C)C6CC[C@]54C)C2C1OC3 (stereo partly drawn) [3-Allobetulon-1-ene-2-succinate, 3-Allobetulon-1-en-2succinate] showed a zone of inhibition at 0.125 µg/mL (Bacillus subtilis; [1]) of 0 mm, a zone of inhibition at 0.125 µg/mL (Staphylococcus aureus; [2]) of 0 mm and a zone of inhibition at 0.125 µg/mL (Escherichia coli; [3]) of 0 mm.
With CC1(C)CCC23CCC4(C)C(CCC5C6(C)CCC(OC(=O)CCC(=O)O)C(C)(C)C6CCC54C)C2C1OC3 (stereo not drawn) [Allobetulin 3-succinate, Allobetulin-3-succinate] the “Zone of inhibition Bacillus subtilis” value (Bacillus subtilis; [8]) was 0 mm, the “Zone of inhibition Staphylococcus aureus” value (Staphylococcus aureus; [8]) was 0 mm and the “Zone of inhibition Escherichia coli” value (Escherichia coli; [8]) was 0 mm.
For “Poly (ethylene glycol) bis (carboxymethyl) ester”, the “Zone of inhibition Bacillus subtilis” value (Bacillus subtilis; [4]) was 0 mm, the “Zone of inhibition Staphylococcus aureus” value (Staphylococcus aureus; [4]) was 0 mm and the “Zone of inhibition Escherichia coli” value (Escherichia coli; [4]) was 0 mm.
In the case of Allobetulin 2-valine-ester, the “Zone of inhibition Bacillus subtilis” value (Bacillus subtilis; [4]) is reported as 0 mm, the “Zone of inhibition Staphylococcus aureus” value (Staphylococcus aureus; [4]) is reported as 0 mm and the “Zone of inhibition Escherichia coli” value (Escherichia coli; [4]) is reported as 0 mm.
With C=C(C)C1CCC2(COC(=O)C(N)Cc3ccccc3)CCC3(C)C(CCC4C5(C)CCC(OC(=O)C(N)Cc6ccccc6)C(C)(C)C5CCC43C)C12 (stereo not drawn) [Betulin-3,28-diphenylalanine ester] the “Zone of inhibition Bacillus subtilis” value (Bacillus subtilis; [4]) was 0 mm, the “Zone of inhibition Staphylococcus aureus” value (Staphylococcus aureus; [4]) was 0 mm and the “Zone of inhibition Escherichia coli” value (Escherichia coli; [4]) was 0 mm.
CC1(C)CCC23CC[C@@]4(C)C(CCC5[C@@]6(C)CC[C@H](O)C(C)(C)C6CC[C@]54C)C2C1OC3=O (stereo partly drawn) [Allobetulin lactone] was tested, and the zone of inhibition at 0.125 µg/mL (Bacillus subtilis; Bacillus subtilis, 18 h) was 0 mm, the zone of inhibition at 0.125 µg/mL (Staphylococcus aureus; Staphylococcus aureus, 18 h) was 0 mm and the zone of inhibition at 0.125 µg/mL (Escherichia coli; Escherichia coli, 18 h) was 0 mm.
For C=C(C)[C@@H]1CC[C@]2(CO)CC[C@]3(C)[C@H](CC[C@@H]4[C@@]5(C)CC[C@H](O)C(C)(C)[C@@H]5CC[C@]43C)[C@@H]12 [Betulin], the zone of inhibition at 1000 µg/mL (Bacillus subtilis; [5]) was 0 mm, the zone of inhibition at 1000 µg/mL (Staphylococcus aureus; [6]) was 0 mm and the zone of inhibition at 1000 µg/mL (Escherichia coli; [7]) was 0 mm.
